# Measurements published in patent publication US9708314B2, “Heterocyclic amide compound” (NISSAN CHEMICAL INDUSTRIES, LTD., priority 2013, dated 2017).
# Experiments:
# Type in all cases: in vivo
# [1] = test system: Apera spica-venti.; experiment: Test Example 4: herbicidal effect by application to foliage (diluvial soil, plastic box); conditions: for L: Application herbicide amount 320 g/ha
# Outline: (§1)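 Emulsion-formulated compound, diluted to a predetermined g/ha dose, applied by small sprayer to leaves and stems of 14-day-old seedlings grown in sterilized diluvial soil. Effect rated on 0–5 herbicidal-ratio scale three weeks on.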
# [2] = test system: Avena fatua; experiment: as above; conditions: for I: Application herbicide amount 320 g/ha
# Outline: as §1
# [3] = test system: Lolium multiflorum Lam.; experiment: as above; conditions: for K: Application herbicide amount 320 g/ha
# Outline: as §1
# [4] = test system: Echinochloa crus-galli var. crus-galli; experiment: as above; conditions: for H: Application herbicide amount 320 g/ha
# Outline: as §1
# [5] = test system: Abutilon theophrasti; experiment: as above; conditions: for M: Application herbicide amount 320 g/ha
# Outline: as §1
# [6] = test system: Setaria viridis; experiment: as above; conditions: for G: Application herbicide amount 320 g/ha
# Outline: as §1
# [7] = test system: Alopecurus myosuroides; experiment: as above; conditions: for J: Application herbicide amount 320 g/ha
# Outline: as §1
# [8] = test system: Chenopodium album; experiment: as above; conditions: for O: Application herbicide amount 320 g/ha
# Outline: as §1
# [9] = test system: Digitaria ciliaris; experiment: as above; conditions: for F: Application herbicide amount 320 g/ha
# Outline: as §1
# [10] = test system: Veronica persica; experiment: as above
# Outline: as §1
# [11] = test system: Galium spurium; experiment: as above
# Outline: as §1
# [12] = test system: Brassica campestris L.; experiment: Test Example 4: effect on crop by application to foliage (diluvial soil, plastic box); conditions: for g: Application herbicide amount 320 g/ha, effect on crop
# Outline: as §1
# [13] = test system: Beta vulgaris ssp. vulgaris; experiment: as above; conditions: for f: Application herbicide amount 320 g/ha, effect on crop
# Outline: as §1
# [14] = test system: Triticum aestivum; experiment: as above; conditions: for e: Application herbicide amount 320 g/ha, effect on crop
# Outline: as §1
# [15] = test system: Glycine max; experiment: as above; conditions: for c: Application herbicide amount 320 g/ha, effect on crop
# Outline: as §1
# [16] = test system: Zea mays; experiment: as above; conditions: for b: Application herbicide amount 320 g/ha, effect on crop
# Outline: as §1
# [17] = test system: Scirpus juncoides; experiment: Test Example 2: herbicidal activity, application during weed generation in submerged conditions; conditions: Eighteenth Table
# Source text: (§2) 5 Herbicidal ratio of 90% or more (almost completely withered) 4 Herbicidal ratio of 70% or more and less than 90% 3 Herbicidal ratio of 40% or more and less than 70% 2 Herbicidal ratio of 20% or more and less than 40% 1 Herbicidal ratio of 5% or more and less than 20% 0 Herbicidal ratio of 5% or less (almost no effect) [Test Example 2] Herbicidal Activity Test by Application During Weed Generation in Submerged Conditions After alluvial soil was placed into 1/10000 are of Wagner pot, water was poured and mixed to form a submerged condition having a water depth of 4 cm. Seeds of Echinochloa oryzacola Vasing., Scirpus juncoides, and Monochoria vaginalis were sowed in a mixed manner in the above pot and the pot was placed in the greenhouse of 25° C. to 30° C. to grow the plants. When Echinochloa oryzacola Vasing., Scirpus juncoides, and Monochoria vaginalis were grown to one leaf stage to two leaf stage, the emulsion agent containing the compound of the present invention prepared in accordance with Formulation Example 2 was diluted with water so as to be a predetermined herbicide amount and the diluted compound was applied to the surface of the water. Three weeks after the herbicide application, effects on each plant were investigated in accordance with the criteria of Test Example 1. A: Echinochloa oryzicola Vasing., B: Scirpus juncoides, C: Monochoria vaginalis, D: Leptochloa chinensis, E: Cyperus difformis, F: Digitaria ciliaris, G: Setaria viridis, H: Echinochloa crus-galli var. crus-galli, I: Avena fatua, J: Alopecurus myosuroides, K: Lolium multiflorum Lam., L: Apera spica-venti., M: Abutilon theophrasti, N: Amaranthus retroflexus, O: Chenopodium album, P: Stellaria media, Q: Galium spurium, R: Veronica persica, a: transplanted Oryza sativa, b: directly sowed Oryza sativa, c: Zea mays, d: Glycine max, e: Triticum aestivum, f: Beta vulgaris ssp. vulgaris, and g: Brassica campestris L. The application herbicide amount (g/ha) means an amount that a concentration is adjusted so that, when an application amount is converted into per hectare (1 ha), the herbicide is applied by the number of grams (g) of the described value.
# [18] = test system: Echinochloa oryzacola Vasing.; experiment: as above; conditions: Eighteenth Table
# Source text: as §2
# [19] = test system: Monochoria vaginalis; experiment: as above; conditions: Eighteenth Table
# Source text: as §2
# [20] = test system: directly sowed Oryza sativa; experiment: Test Example 4: effect on crop by application to foliage (diluvial soil, plastic box); conditions: for d: Application herbicide amount 320 g/ha, effect on crop
# Outline: as §1
# [21] = Application herbicide amount 288 g/ha, foliage application
# [22] = application herbicide amount 288 g/ha
# [23] = application herbicide amount 320 g/ha
# [24] = Application herbicide amount 320 g/ha
# [25] = application to foliage, application herbicide amount 320 g/ha
smiles,measurement,setting,value
C=CCSc1nnc2c(C(=O)Nc3nnco3)ccc(C(F)(F)F)n12 [1-128],L (Apera spica-venti.) herbicidal effect grade,[1]; [21],1 (Herbicidal ratio of 5% or more and less than 20%)
same,I (Avena fatua) herbicidal effect grade,[2]; [21],0 (Herbicidal ratio of 5% or less (almost no effect))
same,K (Lolium multiflorum Lam.) herbicidal effect grade,[3]; [21],1 (Herbicidal ratio of 5% or more and less than 20%)
same,H (Echinochloa crus-galli var. crus-galli) herbicidal effect grade,[4]; [21],5 (Herbicidal ratio of 90% or more (almost completely withered))
same,M (Abutilon theophrasti) herbicidal effect grade,[5]; [21],3 (Herbicidal ratio of 40% or more and less than 70%)
same,G (Setaria viridis) herbicidal effect grade,[6]; [21],2 (Herbicidal ratio of 20% or more and less than 40%)
same,J (Alopecurus myosuroides) herbicidal effect grade,[7]; [21],1 (Herbicidal ratio of 5% or more and less than 20%)
same,O (Chenopodium album) herbicidal effect grade,[8]; [21],5 (Herbicidal ratio of 90% or more (almost completely withered))
same,F (Digitaria ciliaris) herbicidal effect grade,[9]; [21],5 (Herbicidal ratio of 90% or more (almost completely withered))
same,R (Veronica persica) herbicidal effect grade,[10]; [21],5 (Herbicidal ratio of 90% or more (almost completely withered))
same,Q (Galium spurium) herbicidal effect grade,[11]; [21],1 (Herbicidal ratio of 5% or more and less than 20%)
same,g (Brassica campestris L.) effect on crop grade,[12]; [21],3 (Herbicidal ratio of 40% or more and less than 70%)
same,f (Beta vulgaris ssp. vulgaris) effect on crop grade,[13]; [21],5 (Herbicidal ratio of 90% or more (almost completely withered))
same,e (Triticum aestivum) effect on crop grade,[14]; [21],1 (Herbicidal ratio of 5% or more and less than 20%)
same,d (Glycine max) effect on crop grade,[15]; [21],3 (Herbicidal ratio of 40% or more and less than 70%)
same,c (Zea mays) effect on crop grade,[16]; [21],0 (Herbicidal ratio of 5% or less (almost no effect))
same,B (Scirpus juncoides) herbicidal ratio grade,[17]; [22],3 (Herbicidal ratio of 40% or more and less than 70%)
same,A (Echinochloa oryzicola Vasing.) herbicidal ratio grade,[18]; [22],1 (Herbicidal ratio of 5% or more and less than 20%)
same,C (Monochoria vaginalis) herbicidal ratio grade,[19]; [22],0 (Herbicidal ratio of 5% or less (almost no effect))
CSC(C)c1nnc2c(C(=O)Nc3nnc(C)o3)ccc(C(F)(F)F)n12 (stereo not drawn) [1-078],L,[1],4 (Herbicidal ratio of 70% or more and less than 90%)
same,I,[2],4 (Herbicidal ratio of 70% or more and less than 90%)
same,K,[3],3 (Herbicidal ratio of 40% or more and less than 70%)
same,H,[4],5 (Herbicidal ratio of 90% or more (almost completely withered))
same,M,[5],5 (Herbicidal ratio of 90% or more (almost completely withered))
same,G,[6],5 (Herbicidal ratio of 90% or more (almost completely withered))
same,J,[7],3 (Herbicidal ratio of 40% or more and less than 70%)
same,O,[8],5 (Herbicidal ratio of 90% or more (almost completely withered))
same,F,[9],5 (Herbicidal ratio of 90% or more (almost completely withered))
same,g,[12],4 (Herbicidal ratio of 70% or more and less than 90%)
same,d,[20],4 (Herbicidal ratio of 70% or more and less than 90%)
same,f,[13],5 (Herbicidal ratio of 90% or more (almost completely withered))
same,e,[14],4 (Herbicidal ratio of 70% or more and less than 90%)
same,c,[15],4 (Herbicidal ratio of 70% or more and less than 90%)
same,b,[16],4 (Herbicidal ratio of 70% or more and less than 90%)
same,B (Scirpus juncoides) herbicidal ratio grade,[17]; [23],3 (Herbicidal ratio of 40% or more and less than 70%)
same,A (Echinochloa oryzicola Vasing.) herbicidal ratio grade,[18]; [23],4 (Herbicidal ratio of 70% or more and less than 90%)
same,C (Monochoria vaginalis) herbicidal ratio grade,[19]; [23],3 (Herbicidal ratio of 40% or more and less than 70%)
CCCSc1nnc2c(C(=O)Nc3nnc(C)o3)ccc(C(F)(F)F)n12 [1-087],L,[1],2 (Herbicidal ratio of 20% or more and less than 40%)
same,I,[2],3 (Herbicidal ratio of 40% or more and less than 70%)
same,K,[3],1 (Herbicidal ratio of 5% or more and less than 20%)
same,H,[4],5 (Herbicidal ratio of 90% or more (almost completely withered))
same,M,[5],5 (Herbicidal ratio of 90% or more (almost completely withered))
same,G,[6],5 (Herbicidal ratio of 90% or more (almost completely withered))
same,J,[7],3 (Herbicidal ratio of 40% or more and less than 70%)
same,O,[8],5 (Herbicidal ratio of 90% or more (almost completely withered))
same,F,[9],5 (Herbicidal ratio of 90% or more (almost completely withered))
same,R,[10]; [24],4 (Herbicidal ratio of 70% or more and less than 90%)
same,Q,[11]; [24],1 (Herbicidal ratio of 5% or more and less than 20%)
same,g,[12],4 (Herbicidal ratio of 70% or more and less than 90%)
same,d,[20],4 (Herbicidal ratio of 70% or more and less than 90%)
same,f,[13],5 (Herbicidal ratio of 90% or more (almost completely withered))
same,e,[14],2 (Herbicidal ratio of 20% or more and less than 40%)
same,c,[15],4 (Herbicidal ratio of 70% or more and less than 90%)
same,b,[16],0 (Herbicidal ratio of 5% or less (almost no effect))
same,A (Echinochloa oryzicola Vasing.) herbicidal ratio grade,[18]; [23],4 (Herbicidal ratio of 70% or more and less than 90%)
same,C (Monochoria vaginalis) herbicidal ratio grade,[19]; [23],3 (Herbicidal ratio of 40% or more and less than 70%)
CCS(=O)(=O)c1nnc2c(C(=O)Nc3nnc(C)o3)ccc(C(F)(F)F)n12 [1-041],L (Apera spica-venti.) herbicidal effect,[1]; [25],4 (Herbicidal ratio of 70% or more and less than 90%)
same,I (Avena fatua) herbicidal effect,[2]; [25],3 (Herbicidal ratio of 40% or more and less than 70%)
same,K (Lolium multiflorum Lam.) herbicidal effect,[3]; [25],2 (Herbicidal ratio of 20% or more and less than 40%)
same,H (Echinochloa crus-galli var. crus-galli) herbicidal effect,[4]; [25],5 (Herbicidal ratio of 90% or more (almost completely withered))
same,M (Abutilon theophrasti) herbicidal effect,[5]; [25],5 (Herbicidal ratio of 90% or more (almost completely withered))
same,G (Setaria viridis) herbicidal effect,[6]; [25],4 (Herbicidal ratio of 70% or more and less than 90%)
same,J (Alopecurus myosuroides) herbicidal effect,[7]; [25],1 (Herbicidal ratio of 5% or more and less than 20%)
same,O (Chenopodium album) herbicidal effect,[8]; [25],5 (Herbicidal ratio of 90% or more (almost completely withered))
same,F (Digitaria ciliaris) herbicidal effect,[9]; [25],5 (Herbicidal ratio of 90% or more (almost completely withered))
same,R (Veronica persica) herbicidal effect,[10]; [25],4 (Herbicidal ratio of 70% or more and less than 90%)
same,Q (Galium spurium) herbicidal effect,[11]; [25],3 (Herbicidal ratio of 40% or more and less than 70%)
same,g (Brassica campestris L.) effect on crop,[12]; [25],0 (Herbicidal ratio of 5% or less (almost no effect))
same,d (directly sowed Oryza sativa) effect on crop,[20]; [25],2 (Herbicidal ratio of 20% or more and less than 40%)
same,f (Beta vulgaris ssp. vulgaris) effect on crop,[13]; [25],5 (Herbicidal ratio of 90% or more (almost completely withered))
same,e (Triticum aestivum) effect on crop,[14]; [25],3 (Herbicidal ratio of 40% or more and less than 70%)
same,c (Glycine max) effect on crop,[15]; [25],0 (Herbicidal ratio of 5% or less (almost no effect))
same,b (Zea mays) effect on crop,[16]; [25],0 (Herbicidal ratio of 5% or less (almost no effect))
same,B (Scirpus juncoides) herbicidal ratio grade,[17]; [23],3 (Herbicidal ratio of 40% or more and less than 70%)
same,A (Echinochloa oryzicola Vasing.) herbicidal ratio grade,[18]; [23],2 (Herbicidal ratio of 20% or more and less than 40%)
